# Source: ChEMBL document CHEMBL1139562, “A switch in enantiomer preference between mitochondrial F1F0-ATPase chemotypes” (Bioorg Med Chem Lett, 2005)
# Target: T1, Mitochondrial complex V; ATP synthase (Bos taurus) (UniProt P05632+P00829+P05631+P05630)
# Assay: Inhibitory activity against mitochondrial ATP hydrolase from bovine
# Format: protein-complex assay
row,SMILES,Inhibition
1,S=C(Nc1ccc(Cl)cc1)O[C@@H](Cn1ccnc1)c1ccc(Cl)cc1Cl,> 100 µM
2,S=C(Nc1ccc(Cl)cc1Cl)O[C@@H](Cn1ccnc1)c1ccc(Cl)cc1Cl,> 100 µM
3,S=C(Nc1ccc(Cl)cc1Cl)O[C@H](Cn1ccnc1)c1ccc(Cl)cc1Cl,> 100 µM
4,S=C(Nc1ccc(Cl)cc1)O[C@H](Cn1ccnc1)c1ccc(Cl)cc1Cl,> 100 µM
5,N#Cc1cccc(C(=O)N/C(=N\[C@H](Cn2ccnc2)c2ccc(Cl)cc2Cl)Nc2ccc(Cl)cc2)c1,> 100 µM

# Target: T1, Mitochondrial complex V; ATP synthase (Bos taurus)
# Assay: Inhibitory activity against mitochondrial ATP synthase from bovine
row,SMILES,Inhibition
1,N#Cc1cccc(C(=O)N/C(=N\[C@@H](Cn2ccnc2)c2ccc(Cl)cc2Cl)Nc2ccc(Cl)cc2)c1,> 100 µM

# Target: T1, Mitochondrial complex V; ATP synthase (Bos taurus)
# Assay: Inhibitory activity against mitochondrial ATP synthase from bovine
# Format: protein-complex assay
row,SMILES,Inhibition
1,N#Cc1cccc(C(=O)N/C(=N\[C@@H](Cn2ccnc2)c2ccc(Cl)cc2Cl)Nc2ccc(Cl)cc2)c1,> 100000 nM
2,S=C(Nc1ccc(Cl)cc1)O[C@@H](Cn1ccnc1)c1ccc(Cl)cc1Cl,140 nM
3,S=C(Nc1ccc(Cl)cc1Cl)O[C@@H](Cn1ccnc1)c1ccc(Cl)cc1Cl,19 nM
4,S=C(Nc1ccc(Cl)cc1Cl)O[C@H](Cn1ccnc1)c1ccc(Cl)cc1Cl,2200 nM
5,S=C(Nc1ccc(Cl)cc1)O[C@H](Cn1ccnc1)c1ccc(Cl)cc1Cl,3600 nM
6,N#Cc1cccc(C(=O)N/C(=N\[C@H](Cn2ccnc2)c2ccc(Cl)cc2Cl)Nc2ccc(Cl)cc2)c1,18 nM
